These results are taken from article PMC4882280 (Journal of clinical pharmacology, 2015).

SMILES strings stand for the structures. Read-outs that look alike come from different tables or passages of the source.

The conditions of data set [1]: postmenopausal volunteers, single oral 25 mg dose; cited from earlier work.
Data set [2] has as its system UGT2B17. As to conditions: human liver microsomes UGT2B17(*2/*2) versus UGT2B17(*1/*1), P=0.023; cited from earlier work. On the technique in general: Microsomes from liver hold many membrane-bound enzymes, among them those of drug oxidation.
For data set [3] the following is noted: single oral 25 mg exemestane; for concentration at 24 h: female, human, urine, po, 25 mg, C24 hr (SD), 24-hr urine concentration.
For data set [4] the following is noted: for Plasma concentrations at 24 and 72 hours after exemestane administration: lower limit of quantitation 0.2 (exemestane) and 0.1 ng/ml (17-hydroexemestane); for AUC(0-t): AUC0-8, plasma; for AUC(0-inf): AUC0-∞ (SD); for Cmax: Cmax (SD); for Tmax: Tmax (SD).
The mark [5] stands for this setting: with beta-glucuronidase, UGT2B17 *1/*1 (n = 8).
The mark [6] stands for this setting: with beta-glucuronidase, UGT2B17 *2/*2 (n = 6).
Setting [7] is: without beta-glucuronidase, UGT2B17 *1/*1 (n = 8).
The mark [8] stands for this setting: without beta-glucuronidase, UGT2B17 *2/*2 (n = 6).
[9] abbreviates: plasma, range over subjects, single oral 25 mg exemestane.
[10] abbreviates: female, human, plasma, po, 25 mg, with beta-glucuronidase (total), UGT2B17 *1/*1 (n = 8), single oral 25 mg exemestane.
Where [11] appears, read: female, human, plasma, po, 25 mg, with beta-glucuronidase (total), UGT2B17 *2/*2 (n = 6), single oral 25 mg exemestane.
The mark [12] stands for this setting: female, human, plasma, po, 25 mg, without beta-glucuronidase (free), UGT2B17 *1/*1 (n = 8), single oral 25 mg exemestane.
The mark [13] stands for this setting: female, human, plasma, po, 25 mg, without beta-glucuronidase (free), UGT2B17 *2/*2 (n = 6), single oral 25 mg exemestane.

For the molecule `C=C1C[C@H]2[C@@H]3CC[C@H](O)[C@@]3(C)CC[C@@H]2[C@@]2(C)C=CC(=O)C=C12` [17-hydroexemestane], the “maximal plasma concentrations (Cmax), range in previous studies” value in data set [1] is 0.22 to 2.44 ng/mL. For the same molecule, the “plasma concentrations over time (AUC), range in previous studies” value in data set [1] is 2.46 to 20.89 ng·h/mL. In addition, the “lower intrinsic clearance (Vmax/Km)” value in data set [2] is reported as 36 fold. In addition, the “C24 hr (SD), 24-hr urine concentration” value in data set [3] (setting [5]) was 2.3 (1.2) ng/ml; in data set [3] (with beta-glucuronidase, UGT2B17 *1/*1 (n = 8), listed as 17-HEXE) it was 2.3 ± 1.2 ng/mL; in data set [3] (setting [6]) it was 0.5 (0.3) ng/ml; in data set [3] (with beta-glucuronidase, UGT2B17 *2/*2 (n = 6), listed as 17-HEXE) it was 0.5 ± 0.3 ng/mL; in data set [3] (setting [7]), 0.4 (0.2) ng/ml; in data set [3] (setting [8]), 0.4 (0.3) ng/ml. For the same molecule, the “difference in the AUC of conjugated 17-hydroexemestane between high and poor expressers” value in data set [4] (UGT2B17 *1/*1 vs *2/*2, plasma) was around 8 fold. Also, the “AUC, range in our pharmacokinetic study” value in data set [4] (setting [9]) lay within 0.7 to 26.9 ng·h/mL. Besides, in data set [4] (setting [9]), the “Cmax, range in our pharmacokinetic study” value was 0.1 to 2.7 ng/mL. Further, in data set [4] (plasma, with beta-glucuronidase (+BG), UGT2B17*1/*1 carriers, single oral 25 mg exemestane), the AUC0-8 turned out to be 7.3 ± 2.6 ng·h/mL. In data set [4] (single oral 25 mg exemestane), the “Plasma concentrations at 24 and 72 hours after exemestane administration” value was “below the lowest limit of quantification”.
One may read the AUC as the area under the concentration-time curve, a measure of exposure. A higher AUC goes with more exposure. On to `C=C1C[C@@H]2[C@H](CC[C@]3(C)C(=O)CC[C@@H]23)[C@@]2(C)C=CC(=O)C=C12` [Exemestane], for which the “maximal plasma concentrations (Cmax), range in previous studies” value in data set [1] is 3.0 to 16.1 ng/mL. In addition, the “plasma concentrations over time (AUC), range in previous studies” value in data set [1] is 25.6 to 98.1 ng·h/mL. The concentration at 24 h in data set [3] (setting [5]) was determined as 1.7 ± 1 ng/mL; in data set [3] (setting [6]), 2.1 ± 1.6 ng/mL; in data set [3] (setting [7]), 1.9 ng/mL; in data set [3] (setting [8]) it was 2.5 ng/mL. Moreover, the “C24 hr (SD), 24-hr urine concentration” value in data set [3] (setting [5]) is listed as 1.7 (1.0) ng/ml; in data set [3] (setting [6]), 2.1 (1.6) ng/ml. Also, in data set [4] (female, human, plasma, po, 25 mg), the AUC was in the range of 9.2 to 40.6 ng·h/mL. In addition, the AUC(0-t) in data set [4] (female, human, plasma, po, 25 mg, with beta-glucuronidase (+BG), UGT2B17*1/*1 carriers, single oral 25 mg exemestane) is 16.2 ± 3.5 ng·h/mL; in data set [4] (female, human, plasma, po, 25 mg, with beta-glucuronidase (+BG), UGT2B17*2/*2 carriers, single oral 25 mg exemestane), 15.5 ± 4.2 ng·h/mL. Also, the AUC(0-inf) in data set [4] (setting [10]) was 19.8 ng·h/mL; in data set [4] (setting [11]), 19 ng·h/mL; in data set [4] (setting [12]) it was 22.7 ng·h/mL; in data set [4] (setting [13]), 19.7 ng·h/mL. The Cmax came to 4.4 ng/mL in data set [4] (setting [10]), 5.2 ng/mL in data set [4] (setting [11]), 5.6 ng/mL in data set [4] (setting [12]) and 5.3 ng/mL in data set [4] (setting [13]). For the same molecule, the Tmax in data set [4] (setting [10]) was 3.1 h; in data set [4] (setting [11]), 1.9 h; in data set [4] (setting [12]), 3.1 h; in data set [4] (setting [13]), 1.7 h. Also, in data set [4] (single oral 25 mg exemestane), the “Plasma concentrations at 24 and 72 hours after exemestane administration” value is listed as “below the lowest limit of quantification”.
